Read-outs that look alike come from different tables or passages of the source.
What was measured:
[1] = system: 3 sensitive and 7 MDR A. baumannii clinical isolates; assay: MIC, Hungarian clinical isolates and controls (384-well); assay type: cell-based; details: n=10
[2] = system: 100 A. baumannii strains (50 MDR, 50 non-MDR); assay: MIC broth microdilution at IHMA Europe, panel of 100 strains; assay type: cell-based; details: Acinetobacter baumannii; for MIC50: read-out: MIC 50

COc1c(N2C[C@@H]3CCCN[C@@H]3C2)c(F)cc2c(=O)c(C(=O)O)cn(C3CC3)c12 [Moxifloxacin, moxifloxacin]
30%: Cumulative % at MIC ([1]; MIC 0.5 µg/mL)
70%: Cumulative % at MIC ([1]; MIC 32 µg/mL)
20%: Cumulative % at MIC ([1]; MIC 0.0625 µg/mL)
100%: Cumulative % at MIC ([1]; MIC 64 µg/mL)
4 µg/mL: MIC ([2]; A. baumannii IHMA 2031524, Greece 2019, MDR, read-out: MIC) | MIC ([2]; A. baumannii IHMA 2183729, Argentina 2020, MDR, read-out: MIC) | MIC ([2]; A. baumannii IHMA 2193607, Venezuela 2020, MDR, read-out: MIC) | MIC ([2]; MDR n = 50, read-out: MIN (minimum MIC))
≤ 0.5 µg/mL: MIC ([2]; A. baumannii IHMA 1769393, Lithuania 2018, Non-MDR, read-out: MIC) | MIC ([2]; A. baumannii IHMA 1769910, Israel 2018, Non-MDR, read-out: MIC) | MIC ([2]; A. baumannii IHMA 1790317, Czech Republic 2018, Non-MDR, read-out: MIC) | MIC ([2]; A. baumannii IHMA 1790916, Romania 2018, Non-MDR, read-out: MIC) | MIC ([2]; A. baumannii IHMA 1795669, Tunisia 2018, Non-MDR, read-out: MIC) | MIC ([2]; A. baumannii IHMA 1821468, South Africa 2018, Non-MDR, read-out: MIC) | MIC ([2]; A. baumannii IHMA 1829500, Georgia 2018, Non-MDR, read-out: MIC) | MIC ([2]; A. baumannii IHMA 1830924, United Kingdom 2018, Non-MDR, read-out: MIC) | MIC ([2]; A. baumannii IHMA 1849829, Kuwait 2018, Non-MDR, read-out: MIC) | MIC ([2]; A. baumannii IHMA 1857118, Slovenia 2018, Non-MDR, read-out: MIC) | MIC ([2]; A. baumannii IHMA 1863631, France 2018, Non-MDR, read-out: MIC) | MIC ([2]; A. baumannii IHMA 1870054, United States 2018, Non-MDR, read-out: MIC) | MIC ([2]; A. baumannii IHMA 1884428, Italy 2018, Non-MDR, read-out: MIC) | MIC ([2]; A. baumannii IHMA 1884990, Germany 2018, Non-MDR, read-out: MIC) | MIC ([2]; A. baumannii IHMA 1900538, Turkey 2018, Non-MDR, read-out: MIC) | MIC ([2]; A. baumannii IHMA 1913773, Kenya 2018, Non-MDR, read-out: MIC) | MIC ([2]; A. baumannii IHMA 1926285, Qatar 2018, Non-MDR, read-out: MIC) | MIC ([2]; A. baumannii IHMA 1957343, Portugal 2019, Non-MDR, read-out: MIC) | MIC ([2]; A. baumannii IHMA 1967860, Spain 2019, Non-MDR, read-out: MIC) | MIC ([2]; A. baumannii IHMA 1975075, Israel 2019, Non-MDR, read-out: MIC) | MIC ([2]; A. baumannii IHMA 1977077, Kuwait 2019, Non-MDR, read-out: MIC) | MIC ([2]; A. baumannii IHMA 1986678, Turkey 2019, Non-MDR, read-out: MIC) | MIC ([2]; A. baumannii IHMA 1995161, Czech Republic 2019, Non-MDR, read-out: MIC) | MIC ([2]; A. baumannii IHMA 1997936, Morocco 2019, Non-MDR, read-out: MIC) | MIC ([2]; A. baumannii IHMA 1999178, Belgium 2019, Non-MDR, read-out: MIC) | MIC ([2]; A. baumannii IHMA 2014367, Jordan 2019, Non-MDR, read-out: MIC) | MIC ([2]; A. baumannii IHMA 2014931, South Africa 2019, Non-MDR, read-out: MIC) | MIC ([2]; A. baumannii IHMA 2019315, Romania 2019, Non-MDR, read-out: MIC) | MIC ([2]; A. baumannii IHMA 2031511, Greece 2019, Non-MDR, read-out: MIC) | MIC ([2]; A. baumannii IHMA 2034657, Tunisia 2019, Non-MDR, read-out: MIC) | MIC ([2]; A. baumannii IHMA 2035134, Serbia 2019, Non-MDR, read-out: MIC) | MIC ([2]; A. baumannii IHMA 2058329, Slovenia 2019, Non-MDR, read-out: MIC) | MIC ([2]; A. baumannii IHMA 2065587, France 2019, Non-MDR, read-out: MIC) | MIC ([2]; A. baumannii IHMA 2099294, United Kingdom 2019, Non-MDR, read-out: MIC) | MIC ([2]; A. baumannii IHMA 2129256, Qatar 2019, Non-MDR, read-out: MIC) | MIC ([2]; A. baumannii IHMA 2157614, Australia 2020, Non-MDR, read-out: MIC) | MIC ([2]; A. baumannii IHMA 2178574, Ukraine 2020, Non-MDR, read-out: MIC) | MIC ([2]; A. baumannii IHMA 2180134, Malaysia 2020, Non-MDR, read-out: MIC) | MIC ([2]; A. baumannii IHMA 2183849, Argentina 2020, Non-MDR, read-out: MIC) | MIC ([2]; A. baumannii IHMA 2184382, Japan 2020, Non-MDR, read-out: MIC) | MIC ([2]; A. baumannii IHMA 2193485, Venezuela 2020, Non-MDR, read-out: MIC) | MIC ([2]; A. baumannii IHMA 2206507, Taiwan 2020, Non-MDR, read-out: MIC) | MIC ([2]; A. baumannii IHMA 2212575, Hungary 2020, Non-MDR, read-out: MIC) | MIC ([2]; A. baumannii IHMA 2215307, Hong Kong 2020, Non-MDR, read-out: MIC) | MIC ([2]; A. baumannii IHMA 2223200, Colombia 2020, Non-MDR, read-out: MIC) | MIC ([2]; A. baumannii IHMA 2224303, Panama 2020, Non-MDR, read-out: MIC) | MIC ([2]; A. baumannii IHMA 2233548, Kazakhstan 2020, Non-MDR, read-out: MIC) | MIC ([2]; A. baumannii IHMA 2239052, Thailand 2020, Non-MDR, read-out: MIC) | MIC ([2]; A. baumannii IHMA 2261633, Canada 2020, Non-MDR, read-out: MIC) | MIC ([2]; A. baumannii IHMA 2275237, Chile 2020, Non-MDR, read-out: MIC) | MIC50 ([2]; all isolates n = 100) | MIC ([2]; all isolates n = 100, read-out: MIN (minimum MIC)) | MIC ([2]; non-MDR n = 50, read-out: MAX (maximum MIC)) | MIC50 ([2]; non-MDR n = 50) | MIC90 ([2]; non-MDR n = 50, read-out: MIC 90) | MIC ([2]; non-MDR n = 50, read-out: MIN (minimum MIC))
8 µg/mL: MIC ([2]; A. baumannii IHMA 1769782, Israel 2018, MDR, read-out: MIC) | MIC ([2]; A. baumannii IHMA 1791877, Israel 2018, MDR, read-out: MIC) | MIC ([2]; A. baumannii IHMA 1792961, Jordan 2018, MDR, read-out: MIC) | MIC ([2]; A. baumannii IHMA 1815856, Israel 2018, MDR, read-out: MIC) | MIC ([2]; A. baumannii IHMA 1983151, Greece 2019, MDR, read-out: MIC) | MIC ([2]; A. baumannii IHMA 1987162, Croatia 2019, MDR, read-out: MIC) | MIC ([2]; A. baumannii IHMA 1993615, Turkey 2019, MDR, read-out: MIC) | MIC ([2]; A. baumannii IHMA 2038976, Hungary 2019, MDR, read-out: MIC) | MIC ([2]; A. baumannii IHMA 2180142, Malaysia 2020, MDR, read-out: MIC) | MIC ([2]; A. baumannii IHMA 2181370, Morocco 2020, MDR, read-out: MIC) | MIC ([2]; A. baumannii IHMA 2193375, Venezuela 2020, MDR, read-out: MIC) | MIC ([2]; A. baumannii IHMA 2195460, Italy 2020, MDR, read-out: MIC) | MIC ([2]; A. baumannii IHMA 2196959, South Africa 2020, MDR, read-out: MIC) | MIC ([2]; A. baumannii IHMA 2216586, Taiwan 2020, MDR, read-out: MIC) | MIC ([2]; A. baumannii IHMA 2233099, Guatemala 2020, MDR, read-out: MIC) | MIC ([2]; A. baumannii IHMA 2238964, Thailand 2020, MDR, read-out: MIC) | MIC ([2]; A. baumannii IHMA 2261047, Belgium 2020, MDR, read-out: MIC) | MIC ([2]; A. baumannii IHMA 2274234, South Africa 2020, MDR, read-out: MIC)

From publication PMC10041525, “New Dual Inhibitors of Bacterial Topoisomerases with Broad-Spectrum Antibacterial Activity and In Vivo Efficacy against Vancomycin-Intermediate Staphylococcus aureus” (Journal of Medicinal Chemistry, 2023)
